The text below walks through data of US8569336B2, “Compounds for the treatment of inflammatory disorders” (priority 2008, dated 2013).

Read-outs that look alike come from different tables or passages of the source.

Experiment [1] deals with T1, purified catalytic domain of recombinant human TACE (rhTACEc) (Homo sapiens, UniProt P78536, N452Q/S266A).
T1 construct: 6xHis (C); made in house; host or cells: baculovirus/Hi5 insect cells
Briefly: TACE kinetic assay: cleavage of internally quenched peptide substrate TNF-FRET 2 (Ki). The following applies: TNF-FRET 2 substrate. The format is biochemical.

Experiment [2] has as its system TNF-α production from human whole blood. The experiment is described as follows: Inhibition of TNF-α production from human whole blood (hWBA), LPS stimulated, ELISA. Conditions: Homo sapiens, human whole blood diluted 1:1, LPS stimulated, TNF-α by ELISA, read-out: hWBA (IC50). Format: cell-based. Background: ELISA stands for enzyme-linked immunosorbent assay.

T1 sequence (P78536 215-477 S266A/N452Q): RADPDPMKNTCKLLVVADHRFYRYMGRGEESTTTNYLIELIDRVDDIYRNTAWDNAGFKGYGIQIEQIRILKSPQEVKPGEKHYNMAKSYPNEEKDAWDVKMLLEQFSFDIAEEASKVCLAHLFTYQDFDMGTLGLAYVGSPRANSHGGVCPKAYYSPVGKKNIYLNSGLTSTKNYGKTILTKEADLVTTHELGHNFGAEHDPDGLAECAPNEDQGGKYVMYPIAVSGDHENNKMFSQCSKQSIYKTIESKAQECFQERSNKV

As for `COc1ccc2c(c1)C(=O)N(C[C@@]1(c3cc4c(O)nccc4o3)NC(=O)NC1=O)C2` [Compound 2256], the Ki (as a rule, a measure of affinity in units of concentration, obtained from inhibition or displacement) in experiment [1] (read-out: Ki) is 0.231 nM. In addition, the IC50 (usually the concentration that inhibits the measured activity by half) in experiment [2] (3.5 h, 3.5 h) was 252 nM.
For `COc1ccc2c(c1)C(=O)N(C[C@@]1(c3cc4c[n+]([O-])ccc4o3)NC(=O)NC1=O)C2` [Compound 2259], in that order: 1.08 nM and 509 nM.
With `COc1ccc2c(c1)C(=O)N(C[C@@]1(c3cc4cc(-c5c(N)noc5C)ccc4o3)NC(=O)NC1=O)C2` [Compound 2261], the Ki in experiment [1] (read-out: Ki) was 0.347 nM. For the same compound, the half-inhibitory concentration (IC50) in experiment [2] (3.5 h, 3.5 h) was 515 nM.
For `COc1ccc2c(c1)C(=O)N(C[C@@]1(c3cc4c(o3)CCNC4)NC(=O)NC1=O)C2` [Compound 2262], in that order: 6.54 nM and no less than 1000 nM.
`COc1ccc2c(c1)C(=O)N(C[C@@]1(c3cc4c(s3)CCN(C)C4)NC(=O)NC1=O)C2` [Compound 2265]: in experiment [1] (read-out: Ki), the inhibitory constant (Ki) amounted to 8.77 nM. In addition, the IC50 in experiment [2] (3.5 h, 3.5 h) was determined as 1440 nM.
For `COc1ccc2c(c1)C(=O)N(C[C@@]1(c3cc4c(o3)CNCC4)NC(=O)NC1=O)C2` [Compound 2266], in that order: 7.83 nM and 860 nM.
Turning to `COc1ccc2c(c1)C(=O)N(C[C@@]1(c3cc4c(o3)CCN(CC(N)=O)C4)NC(=O)NC1=O)C2` [Compound 2268], the Ki in experiment [1] (Ki) was found to be 0.702 nM. Also, in experiment [2] (3.5 h, 3.5 h), the IC50 turned out to be 252 nM.
In the case of `COc1ccc2c(c1)C(=O)N(C[C@@]1(c3cc4c(C(F)(F)F)nccc4o3)NC(=O)NC1=O)C2` [Compound 2270], the inhibitory constant (Ki) in experiment [1] (read-out: Ki) came out at 0.441 nM. In experiment [2] (3.5 h, 3.5 h), the IC50 was found to be 1070 nM.
For `COc1ccc2c(c1)C(=O)N(C[C@@]1(c3cc4cnc(C5=NCCN5)cc4o3)NC(=O)NC1=O)C2` [Compound 2273], in that order: 0.124 nM and 747 nM.
In the same order, the values of `COc1ccc2c(c1)C(=O)N(C[C@@]1(c3cc4cc(-c5cc(O)n[nH]5)cnc4o3)NC(=O)NC1=O)C2` [Compound 2275] are 1.08 nM and 491 nM.
For `COc1ccc2c(c1)C(=O)N(C[C@@]1(c3cc4cc(-c5cc(O)nn5C)cnc4o3)NC(=O)NC1=O)C2` [Compound 2276], in that order: 0.562 nM and 222 nM.
With `COc1ccc2c(c1)C(=O)N(C[C@@]1(c3cc4c(N5CCNCC5)nccc4o3)NC(=O)NC1=O)C2` [Compound 2279], in experiment [1] (Ki), the inhibition constant (Ki) came out at 2.55 nM. In experiment [2] (3.5 h, 3.5 h), the half-inhibitory concentration (IC50) was found to be 234 nM.
With `COc1ccc2c(c1)C(=O)N(C[C@@]1(c3cc4c(N5CCNC(=O)C5)nccc4o3)NC(=O)NC1=O)C2` [Compound 2280], in experiment [1] (read-out: Ki), the Ki worked out at 1.1 nM. The IC50 in experiment [2] is 340 nM.
For `COc1ccc2c(c1)C(=O)N(C[C@@]1(c3cc4cnc(N)cc4o3)NC(=O)NC1=O)C2` [Compound 2282], in that order: 0.422 nM and 268 nM.
In the same order, the values of `COc1ccc2c(c1)C(=O)N(C[C@@]1(c3cc4c(-c5cn[nH]c5)nccc4o3)NC(=O)NC1=O)C2` [Compound 2283] are 0.185 nM and 154 nM.
In the same order, the values of `COc1ccc2c(c1)C(=O)N(C[C@@]1(c3cc4cnc(C5CC5)cc4o3)NC(=O)NC1=O)C2` [Compound 2287] are 0.429 nM and 575 nM.
Turning to `COc1ccc2c(c1)C(=O)N(C[C@@]1(c3cc4cnc(-c5c(C)noc5C)cc4o3)NC(=O)NC1=O)C2` [Compound 2288], the Ki in experiment [1] (read-out: Ki) came to 0.721 nM. For the same compound, the IC50 in experiment [2] came out at 696 nM.
In the same order, the values of `CNc1cc2oc([C@]3(CN4Cc5ccc(OC)cc5C4=O)NC(=O)NC3=O)cc2cn1` [Compound 2291] are 0.578 nM and 3420 nM.
For `COc1ccc2c(c1)C(=O)N(C[C@@]1(c3cc4c(N5CCNC5=O)nccc4o3)NC(=O)NC1=O)C2` [Compound 2292], in that order: 1.32 nM and 485 nM.
Take `COc1ccc2c(c1)C(=O)N(C[C@@]1(c3cc4c(Cl)nc(N)nc4o3)NC(=O)NC1=O)C2` [Compound 2296]: the inhibition constant Ki in experiment [1] (Ki) was found to be 4.59 nM. Besides, in experiment [2], the IC50 was no less than 10000 nM.
As to `COc1ccc2c(c1)C(=O)N(C[C@@]1(c3cc4cnc(NC5CC5)nc4o3)NC(=O)NC1=O)C2` [Compound 2297], the Ki in experiment [1] (read-out: Ki) amounted to 0.822 nM. Further, the half-maximal inhibitory concentration (IC50) in experiment [2] was no less than 1000 nM.
In the same order, the values of `COc1ccc2c(c1)C(=O)N(C[C@@]1(c3cc4cnc(NC(C)C)nc4o3)NC(=O)NC1=O)C2` [Compound 2298] are 1.69 nM and no less than 1000 nM.
Turning to `COc1ccc2c(c1)C(=O)N(C[C@@]1(c3cc4c(C)nc(N)nc4o3)NC(=O)NC1=O)C2` [Compound 2299], in experiment [1] (Ki), the Ki amounted to 0.762 nM. Besides, in experiment [2], the IC50 amounted to 284 nM.
Regarding `COc1ccc2c(c1)C(=O)N(C[C@@]1(c3cc4cnc(Cl)nc4o3)NC(=O)NC1=O)C2` [Compound 2301], in experiment [1] (read-out: Ki), the inhibition constant (Ki) was found to be 0.36 nM. For the same compound, the IC50 in experiment [2] stood at 532 nM.
For `COc1ccc2c(c1)C(=O)N(C[C@@]1(c3cc4cc(C)ncc4o3)NC(=O)NC1=O)C2` [Compound 2302], in that order: 0.437 nM and 470 nM.
For the compound `COc1ccc2c(c1)C(=O)N(C[C@@]1(c3cc4cncc(Br)c4o3)NC(=O)NC1=O)C2` [Compound 2303], the inhibition constant Ki in experiment [1] (read-out: Ki) stood at 0.312 nM. For the same compound, in experiment [2], the IC50 worked out at 630 nM.
In the same order, the values of `COc1ccc2c(c1)C(=O)N(C[C@@]1(c3cc4c(C(F)(F)F)nc(N)nc4o3)NC(=O)NC1=O)C2` [Compound 2305] are 0.568 nM and 1420 nM.
For `COc1ccc2c(c1Cl)C(=O)N(C[C@@]1(c3cc4cnccc4o3)NC(=O)NC1=O)C2` [Compound 2306], in that order: 0.57 nM and 834 nM.
With `COc1ccc2c(c1)C(=O)N(C[C@@]1(c3cc4cnc(OC)cc4o3)NC(=O)NC1=O)C2` [Compound 2308], in experiment [1] (read-out: Ki), the Ki was found to be 0.328 nM. The 50% inhibitory concentration (IC50) in experiment [2] is 2110 nM.
For `COc1cc2c(cc1F)CN(C[C@@]1(c3cc4cnccc4o3)NC(=O)NC1=O)C2=O` [Compound 2311], in that order: 1.72 nM and 942 nM.
In the same order, the values of `COc1ccc2c(c1)C(=O)N(C[C@@]1(c3cc4cnc(O)cc4o3)NC(=O)NC1=O)C2` [Compound 2312] are 1.06 nM and 218 nM.
Turning to `COc1ccc2c(c1)C(=O)N(C[C@@]1(c3cc4[nH]c(=O)ccc4o3)NC(=O)NC1=O)C2` [Compound 2317], in experiment [1] (read-out: Ki), the Ki amounted to 0.375 nM. For the same compound, the IC50 in experiment [2] was 542 nM.
As to `COc1ccc2c(c1)C(=O)N(C[C@@]1(c3cc4ncc(CO)cc4o3)NC(=O)NC1=O)C2` [Compound 2320], the inhibition constant (Ki) in experiment [1] (read-out: Ki) was determined as 0.586 nM. Moreover, in experiment [2], the IC50 turned out to be 609 nM.
In the same order, the values of `COc1ccc2c(c1)C(=O)N(C[C@@]1(c3cc4cc(C(=O)NO)ccc4o3)NC(=O)NC1=O)C2` [Compound 2402] are 0.5 nM and 256 nM.
In the same order, the values of `COc1ccc2c(c1)C(=O)N(C[C@@]1(c3ccc(C(N)=O)cc3)NC(=O)NC1=O)C2` [Compound 2403] are 1.3 nM and 1970 nM.
As for `COc1ccc2c(c1)C(=O)N(C[C@@]1(c3ccc(C(=O)O)cc3)NC(=O)NC1=O)C2` [Compound 2404], the Ki in experiment [1] (read-out: Ki) was 3.15 nM. In addition, the IC50 in experiment [2] is 1710 nM.
Turning to `COc1ccc2c(c1)C(=O)N(C[C@@]1(c3ccc(C(=O)N4CCOCC4)cc3)NC(=O)NC1=O)C2` [Compound 2405], the Ki in experiment [1] (read-out: Ki) is 2.91 nM. The IC50 in experiment [2] came out at 2710 nM.
In the same order, the values of `COc1ccc2c(c1)C(=O)N(C[C@@]1(c3ccc(C(=O)NS(C)(=O)=O)cc3)NC(=O)NC1=O)C2` [Compound 2406] are 5.38 nM and 7110 nM.
In the case of `COc1ccc2c(c1)C(=O)N(C[C@@]1(c3cc4cc(C(N)=O)ccc4o3)NC(=O)NC1=O)C2` [Compound 2407], in experiment [1] (Ki), the Ki was 0.12 nM. Also, the IC50 in experiment [2] was 162 nM.
Take `COc1ccc2c(c1)C(=O)N(C[C@@]1(c3cc4ccc(C(N)=O)cc4o3)NC(=O)NC1=O)C2` [Compound 2408]: the Ki in experiment [1] (read-out: Ki) was 0.49 nM. The IC50 in experiment [2] worked out at 132 nM.
In the same order, the values of `CCOC(=O)c1ccc2cc([C@]3(CN4Cc5ccc(OC)cc5C4=O)NC(=O)NC3=O)oc2c1` [Compound 2409] are 0.33 nM and 1870 nM.
As to `COc1ccc2c(c1)C(=O)N(C[C@@]1(c3cc4ccc(C(=O)O)cc4o3)NC(=O)NC1=O)C2` [Compound 2410], the Ki in experiment [1] (read-out: Ki) was found to be 0.3 nM. The half-maximal inhibitory concentration (IC50) in experiment [2] amounted to 591 nM.
For `COc1ccc2c(c1)C(=O)N(C[C@@]1(c3cc4ccc(C(=O)NCC5CCN(C)CC5)cc4o3)NC(=O)NC1=O)C2` [Compound 2411], in that order: 1.14 nM and 348 nM.
For `COCCNC(=O)c1ccc2cc([C@]3(CN4Cc5ccc(OC)cc5C4=O)NC(=O)NC3=O)oc2c1` [Compound 2413], in that order: 0.6 nM and 300 nM.
For `COc1ccc2c(c1)C(=O)N(C[C@@]1(c3cc4ccc(C(=O)N(C)C)cc4o3)NC(=O)NC1=O)C2` [Compound 2414], in that order: 0.41 nM and 990 nM.
Consider `COc1ccc2c(c1)C(=O)N(C[C@@]1(c3cc4ccc(C(=O)NC[C@H](C)O)cc4o3)NC(=O)NC1=O)C2` [Compound 2415], for which the Ki in experiment [1] (read-out: Ki) came out at 0.51 nM. Further, in experiment [2], the concentration for half-maximal inhibition (IC50) came to 452 nM.
In the same order, the values of `COc1ccc2c(c1)C(=O)N(C[C@@]1(c3cc4ccc(C(=O)NC[C@@H](C)O)cc4o3)NC(=O)NC1=O)C2` [Compound 2416] are 0.56 nM and 891 nM.
For `COc1ccc2c(c1)C(=O)N(C[C@@]1(c3cc4ccc(C(=O)N[C@@H](C)CO)cc4o3)NC(=O)NC1=O)C2` [Compound 2417], in that order: 0.64 nM and 508 nM.
With `COc1ccc2c(c1)C(=O)N(C[C@@]1(c3cc4ccc(C(=O)NCCN5CCCC5)cc4o3)NC(=O)NC1=O)C2` [Compound 2418], the Ki in experiment [1] (read-out: Ki) came out at 0.76 nM. In addition, the IC50 in experiment [2] turned out to be 265 nM.
For `CCN(CC)CCNC(=O)c1ccc2cc([C@]3(CN4Cc5ccc(OC)cc5C4=O)NC(=O)NC3=O)oc2c1` [Compound 2419], in that order: 0.79 nM and 332 nM.
